The text below walks through data of PubChem BioAssay (NCI).

Test systems include SK-MEL-2 melanoma; CAKI-1 renal; RPMI-8226 leukemia; EKVX NSCLC; M14 melanoma; HL-60(TB) leukemia; KM12 colon; DLD-1 colon; LXFL 529 NSCLC; SNB-75 CNS.
Common to all, as to assay: growth of human tumour cells (NCI), 48 h

The structures appear in SMILES notation.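 Cells were grown in 96-well plates and exposed to each compound for 48 hours at five concentrations; endpoints were interpolated linearly between bracketing concentrations, or set to the highest concentration if not reached. Here, GI50 denotes the concentration required for 50% inhibition of growth. At the TGI there is no net growth.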

Turning to `CC1CCP(=O)(c2ccccc2)CC1` (centres undefined), the TGI in the experiment on SK-MEL-2 melanoma, in the experiment on CAKI-1 renal, in the experiment on RPMI-8226 leukemia, with EKVX NSCLC, in the experiment on M14 melanoma and in the experiment with HL-60(TB) leukemia was over 100 µM in each case. Besides, the TGI in the experiment with KM12 colon, in the experiment on DLD-1 colon, in the experiment with LXFL 529 NSCLC and in the experiment with SNB-75 CNS was over 100 µM in each case.

Regarding `CC1(C)CC(=O)C(=[N+]=[N-])C(=O)C1`, the TGI with SK-MEL-2 melanoma, in the experiment with CAKI-1 renal, with RPMI-8226 leukemia, with EKVX NSCLC, in the experiment on M14 melanoma and with HL-60(TB) leukemia was over 100 µM each time. In addition, the TGI in the experiment on KM12 colon, in the experiment on DLD-1 colon, in the experiment on LXFL 529 NSCLC and in the experiment on SNB-75 CNS was over 100 µM each time.

Regarding `COc1cc(Cl)c2c3c(c(C(=O)c4ccccc4)oc13)CCC2`, the TGI with CAKI-1 renal, in the experiment on RPMI-8226 leukemia, with EKVX NSCLC, in the experiment on M14 melanoma, with HL-60(TB) leukemia and with DLD-1 colon was over 100 µM each time. In addition, the TGI with LXFL 529 NSCLC and in the experiment on SNB-75 CNS was over 100 µM each time.

`Cc1ccc(NC(=O)C2C(=O)N(c3ccc(C)c(C)c3)C(=O)/C2=N\NC(N)=S)cc1C` (centres undefined): the TGI with SK-MEL-2 melanoma, with CAKI-1 renal, with RPMI-8226 leukemia, with EKVX NSCLC, in the experiment on M14 melanoma and with HL-60(TB) leukemia was over 100 µM each time. In addition, the TGI in the experiment with KM12 colon, in the experiment on DLD-1 colon, with LXFL 529 NSCLC and in the experiment on SNB-75 CNS was over 100 µM in each case.

Turning to `CN1CCN(CCNc2ccc(CO)c3sc4ccccc4c(=O)c23)CC1`, the TGI amounted to 20.9 µM in the experiment with SK-MEL-2 melanoma; 19.8 µM in the experiment on CAKI-1 renal; 23.4 µM with RPMI-8226 leukemia; 20.7 µM with EKVX NSCLC; 12 µM with M14 melanoma; 15.7 µM in the experiment with HL-60(TB) leukemia. The TGI in the experiment on KM12 colon stood at 16.7 µM; in the experiment with DLD-1 colon, 53.2 µM; with LXFL 529 NSCLC, 22.6 µM; in the experiment with SNB-75 CNS it was 14.5 µM. The GI50 with EKVX NSCLC is 7.48 µM.

As for `CCCCCC(O)(CCCCC)CCCCCCCCC1=C(O)c2[nH]c(=O)ccc2C(=O)C1=O`, the TGI in the experiment with SK-MEL-2 melanoma was found to be 13.9 µM; in the experiment with CAKI-1 renal it was 32 µM; in the experiment with RPMI-8226 leukemia, 25.3 µM; in the experiment on EKVX NSCLC it was 28.8 µM; with M14 melanoma, 21.6 µM; in the experiment on HL-60(TB) leukemia, 23.6 µM. Besides, the TGI worked out at 23.6 µM with KM12 colon, 19.7 µM with DLD-1 colon, 15.7 µM with LXFL 529 NSCLC and 32.3 µM in the experiment with SNB-75 CNS.

In the case of `COC(=O)/C(=C/c1ccc(OC)cc1)NC(=O)c1ccccc1`, the TGI with SK-MEL-2 melanoma, in the experiment on CAKI-1 renal, in the experiment with RPMI-8226 leukemia, in the experiment with EKVX NSCLC, with M14 melanoma and in the experiment on HL-60(TB) leukemia was over 100 µM each time. Besides, the TGI with KM12 colon, with DLD-1 colon, in the experiment with LXFL 529 NSCLC and in the experiment on SNB-75 CNS was over 100 µM in each case.

Turning to `O=[N+]([O-])[O-].O=[N+]([O-])[O-].[Au].[Au].c1ccc([P-]c2ccccc2)cc1.c1ccc([P-]c2ccccc2)cc1`, the GI50 in the experiment on SK-MEL-2 melanoma is 31.1 µM; in the experiment on CAKI-1 renal, 26.9 µM; in the experiment with RPMI-8226 leukemia, 14.3 µM; in the experiment on EKVX NSCLC, 33.4 µM; in the experiment on M14 melanoma, 22.6 µM; with HL-60(TB) leukemia it was 12 µM. In addition, the GI50 with KM12 colon was 46.3 µM; with DLD-1 colon it was 47 µM; in the experiment with LXFL 529 NSCLC, 14.2 µM; in the experiment on SNB-75 CNS, 51.4 µM. Further, the TGI was 58.1 µM in the experiment on SK-MEL-2 melanoma; 52.7 µM in the experiment on CAKI-1 renal; over 100 µM with RPMI-8226 leukemia; 63 µM in the experiment on EKVX NSCLC; 52.9 µM in the experiment with M14 melanoma; over 100 µM in the experiment on HL-60(TB) leukemia. For the same compound, the TGI with KM12 colon is over 100 µM; in the experiment with DLD-1 colon, over 100 µM; in the experiment on LXFL 529 NSCLC, 32.7 µM; in the experiment on SNB-75 CNS, over 100 µM.

Turning to `COc1ccc(Cl)cc1NC(=O)c1cccc([N+](=O)[O-])c1O`, the TGI is 24.8 µM in the experiment on SK-MEL-2 melanoma; over 64.8 µM with CAKI-1 renal; over 69.5 µM in the experiment on RPMI-8226 leukemia; 51.4 µM in the experiment on EKVX NSCLC; over 100 µM in the experiment on M14 melanoma; over 69.6 µM in the experiment on HL-60(TB) leukemia. The TGI in the experiment with KM12 colon is over 72 µM; in the experiment with DLD-1 colon it was over 100 µM; in the experiment with LXFL 529 NSCLC, over 100 µM; in the experiment on SNB-75 CNS it was over 88.3 µM.

In the case of `C#C[C@H](CCCC)OC(=O)N[C@H](C)c1ccccc1`, the TGI with SK-MEL-2 melanoma was 68.4 µM; in the experiment with CAKI-1 renal, over 100 µM; with RPMI-8226 leukemia, 69.4 µM; in the experiment on EKVX NSCLC, over 100 µM; in the experiment on M14 melanoma, over 100 µM; with HL-60(TB) leukemia, 40.7 µM. In addition, the TGI with KM12 colon, in the experiment on DLD-1 colon, in the experiment on LXFL 529 NSCLC and with SNB-75 CNS was over 100 µM each time.
